Like-named read-outs stand apart in the source and are kept apart here.
Key:
[1] = tested on: TβRIII KO1 and KO2 HUT-78 cells; assay: Proliferation assay, TβRIII knock-out HUT-78 cells (KO1 and KO2); type: cell-based, human; conditions: three days, cell counting
Protocol: (§1) Human T-cell leukemia/lymphoma and prostate cancer cell lines were seeded into 96-well plates at a density of 60 × 10^3 and 20 × 10^3 cells/well respectively, and treated with 5-fold dilutions of TJ191, cladribine, 6-MP, ara-C, 6-TG, adriamycine or endoxan. 200 × 10^3 PBMCs/well were seeded and treated as indicated above. After three days, cells were counted using the coulter cell counter (Analis, Belgium). The IC50 value refers to the compound concentration that causes 50% inhibition of cell growth.

[2] = tested on: PBMCs; assay: Proliferation assay, PBMCs; type: cell-based, human; conditions: PBMCs stimulated with IL-2 and phytohemagglutinin, three days, cell counting, read-out: IC50 (50% inhibition of cell growth)
Protocol: (§2) PBMCs were isolated from Buffy coats obtained from healthy blood donors (after receiving informed consent) using lymphoprep according to the manufacturer’s instructions. PBMCs were then stimulated with interleukin-2 (2 ng/ml, R&D systems, Abingdon, UK) and phytohemagglutinin (2 µg/ml, Sigma-Aldrich) for three days and used in the experiments described below. Human T-cell leukemia/lymphoma cell lines CCRF-CEM (referred to as CEM), JURKAT, MOLT-3, MOLT-4, SUP-T1, MT-2, MT-4, C8166, HSB-2, and HUT-78 were obtained from ATCC (Middlesex, UK). Cells were cultured in RPMI-1640 medium supplemented with 10% fetal bovine serum (FBS, Gibco, Erembodegem, Belgium) and 2 mM L-glutamine (Gibco).
as §1

[3] = tested on: CEM cells; assay: Proliferation assay, CEM cells; type: cell-based, human; conditions: three days, cell counting, read-out: IC50 (50% inhibition of cell growth)
Protocol: as §2, with “(Gibco). […] After three days, cells were counted using the coulter cell counter (Analis, Belgium). The IC50 value refers to the compound concentration that causes 50% inhibition of cell growth.” for “(Gibco).”

[4] = tested on: JURKAT cells; assay: Proliferation assay, JURKAT cells; type: cell-based, human; conditions: three days, cell counting, read-out: IC50 (50% inhibition of cell growth)
Protocol: as §2, with “(Gibco). […] After three days, cells were counted using the coulter cell counter (Analis, Belgium). The IC50 value refers to the compound concentration that causes 50% inhibition of cell growth.” for “(Gibco).”

[5] = tested on: MOLT-3 cells; assay: Proliferation assay, MOLT-3 cells; type: cell-based, human; conditions: three days, cell counting, read-out: IC50 (50% inhibition of cell growth)
Protocol: as §2, with “(Gibco). […] After three days, cells were counted using the coulter cell counter (Analis, Belgium). The IC50 value refers to the compound concentration that causes 50% inhibition of cell growth.” for “(Gibco).”

[6] = tested on: MOLT-4 cells; assay: Proliferation assay, MOLT-4 cells; type: cell-based, human; conditions: three days, cell counting, read-out: IC50 (50% inhibition of cell growth)
Protocol: as §2, with “(Gibco). […] After three days, cells were counted using the coulter cell counter (Analis, Belgium). The IC50 value refers to the compound concentration that causes 50% inhibition of cell growth.” for “(Gibco).”

[7] = tested on: SUP-T1 cells; assay: Proliferation assay, SUP-T1 cells; type: cell-based, human; conditions: three days, cell counting, read-out: IC50 (50% inhibition of cell growth)
Protocol: as §2, with “(Gibco). […] After three days, cells were counted using the coulter cell counter (Analis, Belgium). The IC50 value refers to the compound concentration that causes 50% inhibition of cell growth.” for “(Gibco).”

[8] = tested on: MT-2 cells; assay: Proliferation assay, MT-2 cells; type: cell-based, human; conditions: three days, cell counting, read-out: IC50 (50% inhibition of cell growth)
Protocol: as §2, with “(Gibco). […] After three days, cells were counted using the coulter cell counter (Analis, Belgium). The IC50 value refers to the compound concentration that causes 50% inhibition of cell growth.” for “(Gibco).”

[9] = tested on: C8166 cells; assay: Proliferation assay, C8166 cells; type: cell-based, human; conditions: three days, cell counting, read-out: IC50 (50% inhibition of cell growth)
Protocol: as §2, with “(Gibco). […] After three days, cells were counted using the coulter cell counter (Analis, Belgium). The IC50 value refers to the compound concentration that causes 50% inhibition of cell growth.” for “(Gibco).”

[10] = tested on: HSB-2 cells; assay: Proliferation assay, HSB-2 cells; type: cell-based, human; conditions: three days, cell counting, read-out: IC50 (50% inhibition of cell growth)
Protocol: as §2, with “(Gibco). […] After three days, cells were counted using the coulter cell counter (Analis, Belgium). The IC50 value refers to the compound concentration that causes 50% inhibition of cell growth.” for “(Gibco).”

[11] = tested on: HUT-78 cells; assay: Proliferation assay, HUT-78 cells; type: cell-based, human
Protocol: as §2, with “(Gibco). […] After three days, cells were counted using the coulter cell counter (Analis, Belgium). The IC50 value refers to the compound concentration that causes 50% inhibition of cell growth.” for “(Gibco).”

[12] = tested on: MT-4 cells; assay: Proliferation assay, MT-4 cells; type: cell-based, human; conditions: three days, cell counting, read-out: IC50 (50% inhibition of cell growth)
Protocol: as §2, with “(Gibco). […] After three days, cells were counted using the coulter cell counter (Analis, Belgium). The IC50 value refers to the compound concentration that causes 50% inhibition of cell growth.” for “(Gibco).”

[13] = tested on: CEM cells; assay: Apoptosis assay (caspase-3 activity, NucView substrate) in CEM cells; type: cell-based, human; conditions: 0.3 µM, 24 h
Protocol: Figure 1 Cytostatic and cytotoxic activity of TJ191 in T-cell leukemia/lymphoma cells (A) Chemical structure of TJ191. (B) Effect of TJ191 on the growth of human T-cell leukemia/lymphoma cell lines. (C) Pro-apoptotic effect of TJ191 in CEM cells. Cells were incubated with TJ191 for 8 h or 24 h and apoptosis was determined based on caspase-3 activity using the NucView […] Caspase-3 substrate, according to the manufacturer’s instruction, and fluorescence microscopy (Axiovert 200 M inverted microscope, Zeiss). Left panel, representative fluorescence microscopy images are shown; scale bars, 50 µm. Right panel, quantification of the apoptosis rate is shown. Bars represent the mean percentage of cells stained positive for caspase-3 of three different sections; bars, ± S.E.M. Data are representative of two independent experiments.
6 × 10^5 CEM cells/well were seeded into 96-well plates and treated with TJ191 in the presence of 2 µM NucView 488 caspase substrate (Biotium, Hayward, CA). When cells undergo apoptosis, the caspase substrate is cleaved by activated caspase-3/7 to release the DNA dye NucView 488, which stains the nucleus with bright green fluorescence. Cells were fixed at indicated times in 2% paraformaldehyde for 10 min at room temperature and analyzed for NucView 488 staining using a Carl Zeiss Axiovert 200 M inverted microscope (Zeiss, Göttingen, Germany).

[14] = tested on: CEM-R cells; assay: Proliferation assay, TJ191-selected resistant CEM cells (CEM-R); type: cell-based, human; conditions: selected one month at 100-fold IC50 concentration of TJ191; three days growth
Protocol: as §1

[15] = Water solubility; type: physicochemical; conditions: precludes in vivo testing
[16] = tested on: PBMCs; design: method as in PMID 28365318; conditions: read-out: IC50, growth of PBMCs; cited from earlier work
[17] = tested on: primary human fibroblasts; design: method as in PMID 28365318; conditions: read-out: IC50, growth of primary human fibroblasts; cited from earlier work
[18] = tested on: tumor cell lines; design: method as in PMID 28365318; conditions: cited from earlier work

With `O=P1(N(CCCl)CCCl)NCCCO1` (stereo not drawn) [endoxan, cyclophosphamide, reference compound] the “Change of IC50 in TβRIII KO1 and KO2 cells compared with parental or scrambled control HUT-78 cells” value [1] was “no significant difference”.
With `Nc1nc2nc[nH]c2c(=S)[nH]1` [6-TG, 6-thioguanine] the IC50 ([2]; Homo sapiens, PBMC, 72 h) was 570 ± 270 nM.
With “2-amino-3-methylcarboxy-5-heptyl-thiophene [TJ191]” the IC50 [3] was 130 ± 20 nM, the IC50 [4] was 130 ± 80 nM and the IC50 [5] was 260 ± 190 nM. For the same compound, the IC50 [6] was 220 ± 110 nM, the IC50 [7] was 1500 ± 20 nM and the IC50 [8] was 320 ± 86 nM. For the same compound, the IC50 [9] was 3100 ± 500 nM, the IC50 [10] was 260 ± 160 nM and the IC50 ([11]; HUT-78 cells (parental), three days, cell counting, read-out: IC50 (50% inhibition of cell growth)) was 17000 ± 10000 nM. For the same compound, the “Fold less sensitive, parental HUT-78 versus CEM cells” value ([11]; ratio of IC50 HUT-78 to IC50 CEM) was 130 fold, the IC50 [12] was 47000 ± 5000 nM and the “Maximum apoptotic rate (cells positive for caspase-3)” value [13] was about 80%. For the same compound, the “Reduced sensitivity of CEM-R compared with wild-type CEM” value [14] was about 100 fold, the “Change of IC50 in TβRIII KO1 and KO2 cells compared with parental or scrambled control HUT-78 cells” value [1] was “reduced at least four- to five-fold” and the Water solubility [15] was “relative water insolubility”. The IC50 [16] was over 100000 nM, the IC50 [17] was over 100000 nM and the IC50 ([18]; drug-insensitive tumor cell lines, read-out: IC50 in drug-insensitive tumor cell lines) was about 60000 nM. The IC50 ([18]; drug-sensitive tumor cell lines, read-out: IC50 in drug-sensitive tumor cell lines) was about 100 nM.
`Nc1ccn([C@@H]2O[C@H](CO)[C@@H](O)[C@@H]2O)c(=O)n1` [ara-C, 1-β-D-arabinofuranosyl cytosine] gave an IC50 ([2]; Homo sapiens, PBMC, 72 h) of 880 ± 600 nM.
In the case of `Nc1nc(Cl)nc2c1ncn2[C@H]1C[C@H](O)[C@@H](CO)O1` [cladribine, Cladribine], the IC50 ([2]; Homo sapiens, PBMC, 72 h) is reported as 180 ± 90 nM.
Compound `COc1cccc2c1C(=O)c1c(O)c3c(c(O)c1C2=O)C[C@@](O)(C(=O)CO)C[C@@H]3O[C@H]1C[C@H](N)[C@H](O)[C@H](C)O1` [adriamycine] has an IC50 [2] of 79 ± 62 nM.

— PMC5814210, “2-Amino-3-methylcarboxy-5-heptyl-thiophene (TJ191) is a selective anti-cancer small molecule that targets low TβRIII-expressing malignant T-cell leukemia/lymphoma cells” (Oncotarget, 2017)
